The values below come from US20210214734A1, “METHODS FOR SELECTIVELY INHIBITING MOLECULAR CHAPERONE CLIENTS AND COMPOSITIONS FOR USE THEREOF” (Research Foundation for the State University of New York, priority 2020, published 2021).

The subject of one test is 786-O cells. As to the kind of experiment: Apoptosis by cleaved caspase-3 immunoblot in 786-O cells. In kind it is cell-based. As to conditions: 786-O clear cell renal cell carcinoma cell line. As to the method:
(§1) Human embryonic kidney (HEK293) and 786-O cells were acquired from the American Type Culture Collection (ATCC). HEK293 cells were grown in Dulbecco's Modified Eagle Medium (DMEM, Millipore-Sigma) and 786-O cells were grown in Roswell Park Memorial Institute (RPMI-1640, Millipore-Sigma) medium supplemented with 10% fetal bovine serum (FBS, Millipore-Sigma) in a CellQ incubator (Panasonic Healthcare) at 37° C. in 5% CO2.
Cultured cells were seeded 24 h prior to treatment. Peptides were added to cells at 50% confluency at the indicated concentrations and incubated for 24 h, followed by protein extraction as described below.
(§2) Protein extraction from mammalian cells was carried out using methods previously described. See Woodford et al., Cell Reports, 14, 872-884 (2016). For immunoprecipitation, protein lysates were incubated with Hsp90 antibody for 2 h followed by incubation with protein G agarose (Qiagen) for 2 h at 4° C. Immunopellets were washed 4 times with fresh lysis buffer (20 mM Tris (pH7.4), 100 mM NaCl, 1 mM MgCl2, 0.1% NP40, protease inhibitor cocktail (Roche), and PhosSTOP (Roche)) and eluted with 5× Laemmli buffer. Precipitated proteins were separated by SDS-PAGE and transferred to nitrocellulose membranes. Co-immunoprecipitated proteins were detected by immunoblotting with the indicated antibodies, diluted in 5% non-fat dry milk reconstituted in TBST.

Test [1] deals with Human Serum Albumin (HSA) (Homo sapiens, UniProt P02768). Put plainly: 19F NMR control for non-specific binding to HSA. As to conditions: 40 mM A01, A02 with 10 mM HSA. How it is done: (§3) All the NMR experiments have been recorded at 298° K with a Bruker FT NMR Avance III 600-MHz spectrometer equipped with a 5-mm CryoProbe™ QCI^1H/^19F-^13C/^15N-D quadruple resonance, a shielded z-gradient coil, and the automatic sample handling system such as a SAMPLEJET™ brand sampling system with temperature control.
(§4) ^19F NMR experiments are a well-recognized approach to study the interaction between small molecules or peptides and proteins. […] This is due to the large dynamic range defined as the difference of the NMR measured response in the free and protein-bound states. ^19F R2 filter NMR experiments are among the most sensitive techniques for weak binding detection. See Dalvit et al., Journal of American Chemical Society, 125, 7696-7703 (2003). The transverse relaxation rate R2 is a very sensitive parameter for these studies, due to the large Chemical Shift Anisotropy (CSA) of ^19F nucleus and to the large exchange contribution See Dalvit et al., Journal of American Chemical Society, 125, 7696-7703 (2003); the compounds/peptides that interact with the receptor will show a broadening and intensity reduction in their ^19F NMR signal in presence of the protein
(§5) The 5 mM stock solution peptides were prepared in 100% in DMSOd6. Solubility and purity of the peptides in PBS buffer pH 7.4, 10% D2O (for the lock signal) were checked by ^19F and ^1H NMR spectroscopy. 1D ^19F NMR experiments were recorded with proton decoupling with the Waltz-16 scheme during the acquisition period with an acquisition time of 0.95 s, a relaxation delay of 30 s. whereas 1D version of the NOESY (nuclear Overhauser effect spectroscopy) pulse sequence with H2O signal presaturation, a mixing time of 10 ms and a relaxation delay of 30 s was used for ^1H NMR experiments.
(§6) For the binding studies R2 filter experiments were recorded with the Carr-Purcell-Meibom-Gill scheme with a time interval of 23.5 ms between the 180° pulses with a loop of 2, an acquisition time of 0.95 s a D1 of 5 s and a number of scans of 512. All the ^19F chemical shifts are referenced to the CFCl3 signal in water.

Another test has as its target Hsp90α-FLAG (Homo sapiens, UniProt P07900). Put plainly: Biotinylated peptide streptavidin pulldown of Hsp90α. In kind it is binding. As to the method: (§7) Total cell lysates prepared as described above were incubated with the indicated amounts of biotinylated peptide at 4° C. for 1 h. Streptavidin agarose beads (ThermoScientific) were added and incubated 1 additional hour with gentle rotation. Bound Hsp90 was detected by immunoblotting as described herein.

The target in the next test is Aha1 (Homo sapiens, UniProt O95433). Put plainly: 19F NMR R2 filter binding to Aha1. As to conditions: cAbl peptides at 10 mM. As to the method:
as §3
^19F NMR experiments are a well-recognized approach to study the interaction between small molecules or peptides and proteins. […] This is due to the large dynamic range defined as the difference of the NMR measured response in the free and protein-bound states. ^19F R2 filter NMR experiments are among the most sensitive techniques for weak binding detection. […]
The 5 mM stock solution peptides were prepared in 100% in DMSOd6. […] 1D ^19F NMR experiments were recorded with proton decoupling with the Waltz-16 scheme during the acquisition period with an acquisition time of 0.95 s, a relaxation delay of 30 s. whereas 1D version of the NOESY (nuclear Overhauser effect spectroscopy) pulse sequence with H2O signal presaturation, a mixing time of 10 ms and a relaxation delay of 30 s was used for ^1H NMR experiments.
For the binding studies R2 filter experiments were recorded with the Carr-Purcell-Meibom-Gill scheme with a time interval of 23.5 ms between the 180° pulses with a loop of 2, an acquisition time of 0.95 s a D1 of 5 s and a number of scans of 512. […]

The target in another test is Hsp90β-FLAG (Homo sapiens, UniProt P08238). Put plainly: Biotinylated peptide streptavidin pulldown of Hsp90β. In kind it is binding. As to conditions: lysate of HEK293 overexpressing Hsp90β-FLAG. As to the method: as §7
Another test deals with Cdk4. Put plainly: Immunoblot of unrelated client Cdk4 in HEK293 cells. In kind it is cell-based, human. As to conditions: 10 μM, 36 hours, selectivity control. How it is done: as §1
(§8) Cultured cells were seeded 24 h prior to treatment. […]
as §2
For orientation: In western blotting, separated proteins are transferred to a membrane and probed.

The test system of a further test is Akt. As to the kind of experiment: Immunoblot of unrelated client Akt in HEK293 cells. As to conditions: 10 μM, 36 hours, selectivity control. In kind it is cell-based, human. As to the method:
as §1, §8, §2

The test system of another test is full length human Hsp90. As to the kind of experiment: 19F NMR R2 filter binding to Hsp90. Details: 19F NMR signal change in presence of Hsp90 (binding): dose or concentration left out as unconfirmed. As to the method: as §3, §4, §5, §6
The target of a further test is T1, Cdc37 (Homo sapiens, UniProt Q16543).
T1 sequence (Q16543 1-378): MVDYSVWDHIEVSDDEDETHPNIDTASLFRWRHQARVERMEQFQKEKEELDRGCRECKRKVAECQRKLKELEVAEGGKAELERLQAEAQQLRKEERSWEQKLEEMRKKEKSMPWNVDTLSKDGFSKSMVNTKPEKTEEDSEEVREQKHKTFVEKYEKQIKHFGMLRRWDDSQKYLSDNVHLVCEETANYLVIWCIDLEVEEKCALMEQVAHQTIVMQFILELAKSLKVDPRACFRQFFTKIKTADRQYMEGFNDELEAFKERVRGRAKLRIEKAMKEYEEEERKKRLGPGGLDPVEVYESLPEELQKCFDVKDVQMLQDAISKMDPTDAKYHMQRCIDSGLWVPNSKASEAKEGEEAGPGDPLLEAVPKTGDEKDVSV
As to the kind of experiment: 19F NMR R2 filter binding to Cdc37. Set-up: dose or concentration left out as unconfirmed. How it is done:
as §3, §4, §5, §6

Another test concerns Aha1-Hsp90 complex. As to the kind of experiment: Hsp90 immunoprecipitation, Aha1-Hsp90 complex in HEK293 cells. In kind it is cell-based, human. As to conditions: 10 μM, 36 hours. As to the method: as §1, §8, §2
The subject of another test is c-Abl-Hsp90 interaction. As to the kind of experiment: Hsp90 immunoprecipitation, c-Abl association in HEK293 cells. In kind it is cell-based, human. As to conditions: 10 μM, 36 hours, IP of endogenous Hsp90. How it is done:
as §1, §8, §2

The subject of another test is c-Src. Put plainly: Immunoblot of unrelated client c-Src in HEK293 cells. In kind it is cell-based, human. As to conditions: 10 μM, 36 hours, selectivity control. How it is done:
as §1, §8, §2

The test system of another test is c-Abl. Put plainly: c-Abl protein level by immunoblot in treated HEK293 cells. In kind it is cell-based, human. As to conditions: 10 μM A01 or A02 with and without TAT, 36 hours. How it is done:
as §1, §8, §2

Where no end group is shown, it is not given here. [ ]: non-standard residue; d: D form. Phe(4-F) = N[C@@H](Cc1ccc(F)cc1)C(=O)O

Chain of Hsp90β-FLAG (P08238 whole entry): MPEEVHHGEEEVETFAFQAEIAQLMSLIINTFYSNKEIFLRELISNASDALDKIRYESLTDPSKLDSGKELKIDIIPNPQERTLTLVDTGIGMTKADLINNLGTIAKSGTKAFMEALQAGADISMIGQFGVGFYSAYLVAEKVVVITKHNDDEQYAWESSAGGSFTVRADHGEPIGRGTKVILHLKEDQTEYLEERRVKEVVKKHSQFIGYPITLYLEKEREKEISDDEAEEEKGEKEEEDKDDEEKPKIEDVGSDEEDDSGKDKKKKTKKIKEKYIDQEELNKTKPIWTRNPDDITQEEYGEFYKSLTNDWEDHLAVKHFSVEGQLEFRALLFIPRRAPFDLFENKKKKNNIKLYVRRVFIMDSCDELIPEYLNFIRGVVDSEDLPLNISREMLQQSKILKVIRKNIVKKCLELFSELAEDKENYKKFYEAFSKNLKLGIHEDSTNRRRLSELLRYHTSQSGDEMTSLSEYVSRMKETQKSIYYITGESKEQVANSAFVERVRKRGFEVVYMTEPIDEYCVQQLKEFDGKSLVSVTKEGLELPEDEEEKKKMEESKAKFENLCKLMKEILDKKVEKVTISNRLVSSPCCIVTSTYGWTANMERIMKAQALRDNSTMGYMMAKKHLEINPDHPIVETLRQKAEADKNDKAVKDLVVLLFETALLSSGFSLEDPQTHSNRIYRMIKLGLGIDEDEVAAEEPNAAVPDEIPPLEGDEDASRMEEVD
Chain of Aha1 (O95433 whole entry, species assumed): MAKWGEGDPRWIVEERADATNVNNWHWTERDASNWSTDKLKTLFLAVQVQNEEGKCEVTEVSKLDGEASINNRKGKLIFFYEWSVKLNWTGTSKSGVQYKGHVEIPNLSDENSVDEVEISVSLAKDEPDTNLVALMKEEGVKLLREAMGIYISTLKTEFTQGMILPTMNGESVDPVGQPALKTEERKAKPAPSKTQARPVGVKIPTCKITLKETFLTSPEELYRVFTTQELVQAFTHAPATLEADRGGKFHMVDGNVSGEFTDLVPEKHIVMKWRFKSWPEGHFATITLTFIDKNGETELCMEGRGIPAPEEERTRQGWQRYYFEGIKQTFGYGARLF

For “GEMGKGGKGRVPYPGMVNREVLDQVERGF(F)RM (GEMGKGGKGRVPYPGMVNREVLDQVERG[Phe(4-F)]RM) [c-Src02, c-Src mimic peptide]”, the “apoptosis (elevation of cleaved caspase-3)” value with 786-O cells is reported as “except c-Src02, induced apoptosis”.

On to “LGGGQF(F)GEVYGGVAVKTLGGGEFLDEAAVMK (LGGGQ[Phe(4-F)]GEVYGGVAVKTLGGGEFLDEAAVMK) [A01, F(F) = 4-Fluoro-L-phenylalanine]”, for which the “binding interaction with HSA by 19F NMR” value in [1] is listed as “neither A01 nor A02 showed binding interaction with HSA”; in test [1] (listed as AblO1), “do not interact with HSA”. The Hsp90 isoform specificity entry with Hsp90α-FLAG (Hsp90α vs Hsp90β, biotinylated peptide pulldown) was “neither peptide demonstrates isoform specificity”. Further, the “binding to Hsp90α in pulldown” value with Hsp90α-FLAG (biotinylated peptide, lysate of HEK293 overexpressing Hsp90α-FLAG) is given as “binds with higher affinity to both isoforms of Hsp90”. Moreover, the “binding to Aha1 by 19F NMR” value with Aha1 is on record as “but not Aha1”. The “binding to Hsp90β in pulldown” value in the test with Hsp90β-FLAG is “binds with higher affinity to both isoforms of Hsp90”. Besides, in the test with Cdk4, the “Cdk4 stability or activity” value is reported as “neither the related kinase c-Src nor the client kinases Cdk4 or Akt showed a defect in stability or activity”. Moreover, the “Akt stability or activity” value with Akt is “neither the related kinase c-Src nor the client kinases Cdk4 or Akt showed a defect in stability or activity”. Besides, the “binding to Hsp90 when A01 and A02 are mixed” value in the test on full length human Hsp90 (19F NMR, peptides mixed) is “continue to bind to Hsp90 even when they are mixed”. Further, the “19F NMR signal change in presence of Hsp90 (binding)” value with full length human Hsp90 (19F R2 filter, peptides tested individually, A01) was “decrease in the presence of Hsp90, indicating peptide-protein binding”. Further, in the test with Cdc37, the “binding to Cdc37 by 19F NMR” value is on record as “showed the ability to bind Cdc37”. In the test on Aha1-Hsp90 complex, the Aha1-Hsp90 complex formation entry was “decreased Aha1-Hsp90 complex formation”. In addition, in the test on c-Abl-Hsp90 interaction, the “dissociation of c-Abl from Hsp90” value is “dissociation of c-Abl from Hsp90”. Further, the “c-Src stability or activity” value with c-Src is “neither the related kinase c-Src nor the client kinases Cdk4 or Akt showed a defect in stability or activity”. Further, the c-Abl protein levels entry in the test with c-Abl was “decrease of c-Abl protein levels”.
